Each structure is given as a SMILES string. Where only a bound is given, the exact number is not on record here.

The subject of one test is hypoxia-inducible endogenous VEGF expression. The test can be described thus: Hypoxia-inducible endogenous VEGF expression ELISA in HeLa cells, dose-response EC50 (Table 3). The conditions noted are these: Homo sapiens, HeLa, read-out: ELISA EC50 μM. The class given is cell-based, human. The procedure, abridged: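 HeLa cells kept 24-48 h under hypoxia (1% O2, 5% CO2, nitrogen balance) with or without compound, e.g. seven concentrations; secreted VEGF in conditioned medium quantified by ELISA against a standard curve. Parallel Cell Titer Glo viability under identical conditions excludes cytotoxicity.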
(In general: An ELISA detects its analyte on a solid surface through an enzyme-linked reagent.)
`O=C(Oc1ccc(Cl)cc1)N1CCc2c([nH]c3ccc(Cl)cc23)C1c1ccc(OCCCN2CC[C@@H](O)C2)cc1` (some centres unmarked) [Compound 1476]: the EC50 was 0.04 to 0.2 µM. Same read-out and setting: for `O=C(Oc1ccc(Cl)cc1)N1CCc2c([nH]c3ccc(Cl)cc23)C1c1ccc(OCCCN2CCC(O)CC2)cc1` (centres unmarked) [Compound 1537] the value was less than 0.008 µM; for `CN1CCC(OCCCOc2ccc(C3c4[nH]c5ccc(Cl)cc5c4CCN3C(=O)Oc3ccc(Cl)cc3)cc2)CC1` (centres unmarked) [Compound 1554], greater than 1 µM. Turning to `O=C(Oc1ccc(Cl)cc1)N1CCc2c([nH]c3ccc(Cl)cc23)C1c1ccc(OCCCOCCN2CCOCC2)cc1` (centres unmarked) [Compound 1555], the EC50 is less than 0.008 µM. Same read-out and setting: for `CN(C)CCN(C)CCCOc1ccc([C@H]2c3[nH]c4ccc(Cl)cc4c3CCN2C(=O)Oc2ccc(Cl)cc2)cc1` [Compound 1611] the value was less than 0.008 µM.

The same test, now with this note: Homo sapiens; HeLa cells, hypoxic conditions (1% O2), VEGF ELISA of conditioned media; read-out: ELISA EC50.
Take `N#Cc1cn(CCOc2ccc(C3c4[nH]c5ccc(Cl)cc5c4CCN3C(=O)Oc3ccc(F)cc3)cc2)nc1N` (centres unmarked) [Compound 1441]: the EC50 lay in the range of 0.008 to 0.04 µM.

`O=C(Oc1ccc(Cl)cc1)N1CCc2c([nH]c3ccc(Cl)cc23)C1c1ccc(OCCNc2ncncn2)cc1` (centres unmarked) [Compound 1442]: the EC50 is less than 0.008 µM. On the same count and under the same terms, with `N#CCOc1ccc(C2c3[nH]c4ccc(Cl)cc4c3CCN2C(=O)Oc2ccc(Cl)cc2)cc1` (centres unmarked) [Compound 1520] the figure was less than 0.008 µM; with `CC(=O)Oc1ccc([C@H]2c3[nH]c4ccc(Cl)cc4c3CCN2C(=O)Oc2ccc(Cl)cc2)cc1` [Compound 1538], less than 0.008 µM; with `CC(=O)Oc1ccc([C@@H]2c3[nH]c4ccc(Cl)cc4c3CCN2C(=O)Oc2ccc(Cl)cc2)cc1` [Compound 1539], 0.04 to 0.2 µM.

Consider `N#CCOc1ccc(C2c3[nH]c4ccc(Cl)cc4c3CCN2C(=O)Oc2ccccc2Cl)cc1` (centres unmarked) [Compound 1546], for which the EC50 is 0.04 to 0.2 µM. For `N#CCOc1ccc(C2c3[nH]c4ccc(Cl)cc4c3CCN2C(=O)Oc2ccc(Br)cc2)cc1` (centres unmarked) [Compound 1547], the EC50 was less than 0.008 µM. Same read-out and setting: for `N#CCOc1ccc(C2c3[nH]c4ccc(Cl)cc4c3CCN2C(=O)Oc2ccc(F)cc2)cc1` (centres unmarked) [Compound 1548] the value was 0.008 to 0.04 µM; for `COc1ccc(OC(=O)N2CCc3c([nH]c4ccc(Cl)cc34)C2c2ccc(OCC#N)cc2)cc1` (centres unmarked) [Compound 1549], 0.008 to 0.04 µM; for `CS(=O)(=O)CCCOc1ccc(C2c3[nH]c4ccc(Cl)cc4c3CCN2C(=O)Oc2ccc(Cl)cc2)cc1` (centres unmarked) [Compound 1551], less than 0.008 µM. Take `CCSCCCOc1ccc(C2c3[nH]c4ccc(Cl)cc4c3CCN2C(=O)Oc2ccc(Cl)cc2)cc1` (centres unmarked) [Compound 1552]: the EC50 was less than 0.008 µM.

In the case of `CC(C)SCCCOc1ccc(C2c3[nH]c4ccc(Cl)cc4c3CCN2C(=O)Oc2ccc(Cl)cc2)cc1` (centres unmarked) [Compound 1553], the EC50 is less than 0.008 µM. For `CC(C)S(=O)(=O)NCC(O)COc1ccc(C2c3[nH]c4ccc(Cl)cc4c3CCN2C(=O)Oc2ccc(F)cc2)cc1` (centres unmarked) [Compound 1557], the EC50 fell in the range of 0.2 to 1 µM. Still for that read-out and setting: with `CCC(=O)NCC(O)COc1ccc(C2c3[nH]c4ccc(Cl)cc4c3CCN2C(=O)Oc2ccc(Cl)cc2)cc1` (centres unmarked) [Compound 1558] the figure was 0.008 to 0.04 µM. Regarding `CC(C)C(=O)NCC(O)COc1ccc(C2c3[nH]c4ccc(Cl)cc4c3CCN2C(=O)Oc2ccc(Cl)cc2)cc1` (centres unmarked) [Compound 1559], the EC50 is 0.008 to 0.04 µM.

For the compound `O=C(NCC(O)COc1ccc(C2c3[nH]c4ccc(Cl)cc4c3CCN2C(=O)Oc2ccc(Cl)cc2)cc1)C1CC1` (centres unmarked) [Compound 1560], the EC50 lay in the range of 0.008 to 0.04 µM. Still for that read-out and setting: with `O=C(NCC(O)COc1ccc(C2c3[nH]c4ccc(Cl)cc4c3CCN2C(=O)Oc2ccc(Cl)cc2)cc1)c1cccnc1` (centres unmarked) [Compound 1561] the figure was 0.008 to 0.04 µM; with `CCOC(=O)NCC(O)COc1ccc(C2c3[nH]c4ccc(Cl)cc4c3CCN2C(=O)Oc2ccc(Cl)cc2)cc1` (centres unmarked) [Compound 1562], 0.008 to 0.04 µM. Still for that read-out and setting: with `CCCOC(=O)NCC(O)COc1ccc(C2c3[nH]c4ccc(Cl)cc4c3CCN2C(=O)Oc2ccc(Cl)cc2)cc1` (centres unmarked) [Compound 1563] the figure was 0.008 to 0.04 µM; with `COCCOC(=O)NCC(O)COc1ccc(C2c3[nH]c4ccc(Cl)cc4c3CCN2C(=O)Oc2ccc(Cl)cc2)cc1` (centres unmarked) [Compound 1564], less than 0.008 µM. Same read-out and setting: with `CCS(=O)(=O)NCC(O)COc1ccc(C2c3[nH]c4ccc(Cl)cc4c3CCN2C(=O)Oc2ccc(Cl)cc2)cc1` (centres unmarked) [Compound 1565] the figure was 0.008 to 0.04 µM; with `CC(C)S(=O)(=O)NCC(O)COc1ccc(C2c3[nH]c4ccc(Cl)cc4c3CCN2C(=O)Oc2ccc(Cl)cc2)cc1` (centres unmarked) [Compound 1566], 0.04 to 0.2 µM. Consider `O=C(Oc1ccc(Cl)cc1)N1CCc2c([nH]c3ccc(Cl)cc23)C1c1ccc(OCC(O)CNS(=O)(=O)C2CC2)cc1` (centres unmarked) [Compound 1567], for which the EC50 fell in the range of 0.04 to 0.2 µM. On the same count and under the same terms, with `[H]/N=c1\sc(C)cn1CCOc1ccc([C@H]2c3[nH]c4ccc(Cl)cc4c3CCN2C(=O)Oc2ccc(Cl)cc2)cc1` [Compound 1568] the figure was 0.008 to 0.04 µM.

As to `O=C(Oc1ccc(Cl)cc1)N1CCc2c([nH]c3ccc(Cl)cc23)C1c1ccc(OC2COC(c3ccccc3)OC2)cc1` (centres unmarked) [Compound 1569], the EC50 was less than 0.008 µM.

In the case of `O=C(Oc1ccc(Cl)cc1)N1CCc2c([nH]c3ccc(Cl)cc23)[C@@H]1c1ccc(Oc2ncccn2)cc1` [Compound 1570], the EC50 was less than 0.008 µM. Still for that read-out and setting: with `O=C(Oc1ccc(Cl)cc1)N1CCc2c([nH]c3ccc(Cl)cc23)[C@@H]1c1ccc(Oc2cnccn2)cc1` [Compound 1571] the figure was less than 0.008 µM; with `O=C(Oc1ccc(Cl)cc1)N1CCc2c([nH]c3ccc(Cl)cc23)[C@@H]1c1ccc(Oc2ccc3ccccc3n2)cc1` [Compound 1572], less than 0.008 µM. Take `O=C(Oc1ccc(F)cc1)N1CCc2c([nH]c3ccc(Cl)cc23)C1c1ccc(OC2CCOCC2)cc1` (centres unmarked) [Compound 1577]: the EC50 was less than 0.008 µM. Same read-out and setting: for `O=C(Oc1ccc(Cl)cc1)N1CCc2c([nH]c3ccc(Cl)cc23)C1c1ccc(OC2CCOCC2)cc1` (centres unmarked) [Compound 1578] the value was less than 0.008 µM; for `C[Si](C)(C)CCS(=O)(=O)N1CCC(Oc2ccc(C3c4[nH]c5ccc(Cl)cc5c4CCN3C(=O)Oc3ccc(F)cc3)cc2)CC1` (centres unmarked) [Compound 1580], less than 0.008 µM. The same measure, in the same setting: for `C[Si](C)(C)CCS(=O)(=O)N1CCC(Oc2ccc(C3c4[nH]c5ccc(Cl)cc5c4CCN3C(=O)Oc3ccc(Cl)cc3)cc2)CC1` (centres unmarked) [Compound 1581] the value was less than 0.008 µM; for `O=C(Oc1ccc(F)cc1)N1CCc2c([nH]c3ccc(Cl)cc23)[C@@H]1c1ccc(OC2CCOCC2)cc1` [Compound 1604], less than 0.008 µM. The same measure, in the same setting: for `O=C(Oc1ccc(Cl)cc1)N1CCc2c([nH]c3ccc(Cl)cc23)[C@@H]1c1ccc(OC2CCOCC2)cc1` [Compound 1605] the value was less than 0.008 µM; for `C[Si](C)(C)CCS(=O)(=O)N1CCC(Oc2ccc([C@H]3c4[nH]c5ccc(Cl)cc5c4CCN3C(=O)Oc3ccc(F)cc3)cc2)CC1` [Compound 1607], less than 0.008 µM; for `C#CCOc1ccc([C@H]2c3[nH]c4ccc(Cl)cc4c3CCN2C(=O)Oc2ccc(Cl)cc2)cc1` [Compound 1612], less than 0.008 µM.

For the compound `C#CCCCOc1ccc([C@H]2c3[nH]c4ccc(Cl)cc4c3CCN2C(=O)Oc2ccc(Cl)cc2)cc1` [Compound 1613], the EC50 was less than 0.008 µM. Still for that read-out and setting: for `C#CCCOc1ccc([C@H]2c3[nH]c4ccc(Cl)cc4c3CCN2C(=O)Oc2ccc(Cl)cc2)cc1` [Compound 1614] the value was less than 0.008 µM; for `CCC(=O)NCC(O)CCOc1ccc([C@H]2c3[nH]c4ccc(Cl)cc4c3CCN2C(=O)Oc2ccc(Cl)cc2)cc1` (some centres unmarked) [Compound 1625], less than 0.008 µM.

Broadly, the EC50 is the midpoint of the concentration-response curve.

(Values after patent US20120157401A1, “METHODS FOR TREATING NEUROFIBROMATOSIS” (PTC Therapeutics, Inc., priority 2009, published 2012).)
